According to ChEMBL document CHEMBL5230157, “The natural anthraquinone dye purpurin exerts antibacterial activity by perturbing the FtsZ assembly” (Bioorg Med Chem, 2021):
Values after ≈ are worked out from the molar mass of the structure shown. Active and inactive are the calls of the source. No cut-off for these calls is given here.

Experiments:
[1] = biological target: T1, Cell division protein FtsZ (Escherichia coli K-12) (UniProt P0A9A6); test: Inhibition of Escherichia coli BL21 FtsZ assessed as inhibition of KCl-induced GTPase activity at 80 uM preincubated for 10 mins followed by KCl stimulation and measured after 10 mins by malachite green ammonium molybdate dye based spectroscopic analysis
T1 sequence (whole entry): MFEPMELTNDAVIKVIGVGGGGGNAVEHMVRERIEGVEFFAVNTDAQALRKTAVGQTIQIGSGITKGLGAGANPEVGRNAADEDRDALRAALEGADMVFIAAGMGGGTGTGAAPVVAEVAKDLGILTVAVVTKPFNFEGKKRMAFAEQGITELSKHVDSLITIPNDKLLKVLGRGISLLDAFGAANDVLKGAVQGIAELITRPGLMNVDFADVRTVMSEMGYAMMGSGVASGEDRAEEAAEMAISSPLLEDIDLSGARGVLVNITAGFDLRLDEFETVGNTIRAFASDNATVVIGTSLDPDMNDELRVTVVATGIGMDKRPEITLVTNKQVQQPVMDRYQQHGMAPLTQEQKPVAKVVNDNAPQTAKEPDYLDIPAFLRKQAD

[2] = biological target: T2, Cell division protein FtsZ (Bacillus subtilis) (UniProt A5Z1V5); test: Binding affinity to Bacillus subtilis FtsZ assessed as intrinsic tryptophan quenching incubated for 30 mins by fluorescence analysis
T2 sequence (whole entry): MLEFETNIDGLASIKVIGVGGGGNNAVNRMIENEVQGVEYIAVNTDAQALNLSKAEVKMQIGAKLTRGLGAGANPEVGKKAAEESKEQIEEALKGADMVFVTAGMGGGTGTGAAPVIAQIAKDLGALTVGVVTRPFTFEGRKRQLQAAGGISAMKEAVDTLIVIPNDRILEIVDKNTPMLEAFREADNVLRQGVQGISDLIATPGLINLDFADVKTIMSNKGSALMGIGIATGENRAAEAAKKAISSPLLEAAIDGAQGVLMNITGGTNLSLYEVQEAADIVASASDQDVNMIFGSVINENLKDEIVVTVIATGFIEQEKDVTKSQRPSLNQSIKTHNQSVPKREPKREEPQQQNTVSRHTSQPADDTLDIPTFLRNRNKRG

[3] = system: HeLa; test: Antiproliferative activity against human HeLa cells assessed as inhibition of cell proliferation at 20 uM incubated for 24 hrs by sulforhodamine B assay; type: functional; design: scale not given: the % may be the effect or the level left
[4] = system: Bacillus subtilis; test: Antibacterial activity against Bacillus subtilis 168 assessed as bacterial growth inhibition at 30 uM by spectrophotometric method; type: functional; conditions: read-out: GI
[5] = system: Escherichia coli; test: Antibacterial activity against Escherichia coli XL1 assessed as bacterial growth inhibition at 20 uM by spectrophotometric method; type: functional; conditions: read-out: GI
[6] = system: Bacillus subtilis; test: Antibacterial activity against Bacillus subtilis 168 assessed as bacterial growth inhibition at 10 uM by spectrophotometric method; type: functional; conditions: read-out: GI
[7] = system: Escherichia coli; test: Antibacterial activity against Escherichia coli XL1 assessed as bacterial growth inhibition at 80 uM by spectrophotometric method; type: functional; conditions: read-out: GI
[8] = biological target: T1, Cell division protein FtsZ (Escherichia coli K-12); test: Binding affinity to Escherichia coli BL21 FtsZ assessed as hydrophobic probe ANS-FtsZ complex fluorescence quenching at 80 uM for 30 mins by fluorescence analysis
[9] = system: HeLa; test: Antiproliferative activity against human HeLa cells assessed as inhibition of cell proliferation at 10 uM incubated for 24 hrs by sulforhodamine B assay; type: functional; design: scale not given: the % may be the effect or the level left
[10] = system: Bacillus subtilis; test: Antibacterial activity against Bacillus subtilis 168 assessed as increase in average cell length at 7 uM incubated for 4 hrs in 9% of bacterial cells by fluorescent microscopy; type: functional
[11] = system: Bacillus subtilis; test: Antibacterial activity against Bacillus subtilis 168 assessed as increase in average cell length at 7 uM incubated for 4 hrs in 23% of bacterial cells by fluorescent microscopy; type: functional
[12] = biological target: Tubulin (Homo sapiens) (UniProt P68371+Q9H4B7+P0DPH7+P68366+Q13509+Q71U36+P04350+Q3ZCM7+P07437+P68363+Q9BQE3+Q6PEY2+Q13885+Q9BVA1+Q9BUF5); test: Inhibition of tubulin polymerization […] assessed as effect on MAP rich- tubulin polymer mass at 20 to 80 uM preincubated for 10 mins followed by GTP addition and measured after 1 hrs by Bradford assay; conditions: dose 20-80 µM, time 70.0 min
[13] = biological target: T1, Cell division protein FtsZ (Escherichia coli K-12); test: Binding affinity to Escherichia coli BL21 FtsZ assessed as hydrophobic probe ANS-FtsZ complex fluorescence quenching at 2 uM for 30 mins by fluorescence analysis
[14] = biological target: T2, Cell division protein FtsZ (Bacillus subtilis); test: Inhibition of Bacillus subtilis 168 FtsZ assessed as effect on nucleoid segregation at 7 uM for 4 hrs by immunostaining based fluorescent microscopy
[15] = system: Bacillus subtilis; test: Antibacterial activity against Bacillus subtilis 168 assessed as minimum inhibitory concentration by spectrophotometric method; type: functional
[16] = biological target: T1, Cell division protein FtsZ (Escherichia coli K-12); test: Inhibition of KCl-induced Escherichia coli BL21 FtsZ polymerization assessed as decrease in FtsZ polymer size at 80 uM incubate for 1 hrs by […] staining based fluorescence microscopy
[17] = system: Bacillus subtilis; test: Antibacterial activity against Bacillus subtilis 168 assessed as bacterial growth inhibition at 5 uM by spectrophotometric method; type: functional; conditions: read-out: GI
[18] = system: Bacillus subtilis; test: Antibacterial activity against Bacillus subtilis 168 assessed as bacterial growth inhibition by spectrophotometric method; type: functional, organism-based
[19] = biological target: T2, Cell division protein FtsZ (Bacillus subtilis); test: Inhibition of Bacillus subtilis PL642 GFP-tagged FtsZ assessed as decrease FtsZ ring at mid bacterial cells at 7 uM for 4 hrs by immunostaining based fluorescent microscopy
[20] = system: Escherichia coli; test: Antibacterial activity against Escherichia coli XL1 assessed as bacterial growth inhibition at 300 uM by spectrophotometric method; type: functional; conditions: read-out: GI
[21] = system: Escherichia coli; test: Antibacterial activity against Escherichia coli XL1 assessed as fold increase in average cell length at 80 uM incubated for 4 hrs in by fluorescent microscopy; type: functional
[22] = biological target: T1, Cell division protein FtsZ (Escherichia coli K-12); test: Inhibition of KCl-induced Escherichia coli BL21 FtsZ polymerization at 20 uM incubate for 10 min followed by KCl stimulation by spectrofluorimeter based light-scattering assay
[23] = system: Bacillus subtilis; test: Antibacterial activity against Bacillus subtilis 168 assessed as bacterial growth inhibition at 20 uM by spectrophotometric method; type: functional; conditions: read-out: GI
[24] = biological target: T1, Cell division protein FtsZ (Escherichia coli K-12); test: Inhibition of KCl-induced Escherichia coli BL21 FtsZ polymerization at 80 uM incubate for 10 min followed by KCl stimulation by spectrofluorimeter based light-scattering assay
[25] = system: Escherichia coli; test: Antibacterial activity against Escherichia coli XL1 assessed as bacterial growth inhibition at 150 uM by spectrophotometric method; type: functional; conditions: read-out: GI
[26] = system: Escherichia coli; test: Antibacterial activity against Escherichia coli XL1 assessed as bacterial growth inhibition at 200 uM by spectrophotometric method; type: functional; conditions: read-out: GI

inhibition [1]: 21.9% | Activity [2]: Dose-Dependent Effect | Activity [8]: 81% | inhibition [12]: inactive | Activity [13]: 14% | Activity [14]: inactive | MIC [15]: 30 µM (≈ 7.69 µg/mL) | inhibition [16]: Active | Activity [19]: Active | inhibition [22]: 20% | inhibition [24]: 47%
SMILES: O=C1c2ccccc2C(=O)c2c(O)c(O)cc(O)c21 [PURPURIN]
Activity [3]: 14% | inhibition of growth at 30 µM [4]: 100% | inhibition of growth at 20 µM [5]: 18.5% | inhibition of growth at 10 µM [6]: 65% | inhibition of growth at 80 µM [7]: 38% | Activity [9]: 6% | Activity [10]: 7 um | Activity [11]: 50.1 um | inhibition of growth at 5 µM [17]: 47% | IC50 [18]: 5.5 µM | inhibition of growth at 300 µM [20]: 94.7% | fold change (FC) [21]: 4 | inhibition of growth at 20 µM [23]: 86% | inhibition of growth at 150 µM [25]: 47.8% | inhibition of growth at 200 µM [26]: 67.8%
